Source: US8920785B2, “Cosmetic or dermatological preparations with a content of one or more thiazole derivates” (Beiersdorf AG, priority 2010, dated 2014)

What follows are molecules tested against T1, human tyrosinase (Homo sapiens, UniProt P14679) (assay: Enzyme test: conversion of L-DOPA to L-dopaquinone by human tyrosinase (MBTH, absorption at 490 nm)). Settings: Concentration 100 μg/ml; substrate L-DOPA; read-out: Inhibition (% of control) of tyrosinase activity.
T1 sequence (P14679 19-529): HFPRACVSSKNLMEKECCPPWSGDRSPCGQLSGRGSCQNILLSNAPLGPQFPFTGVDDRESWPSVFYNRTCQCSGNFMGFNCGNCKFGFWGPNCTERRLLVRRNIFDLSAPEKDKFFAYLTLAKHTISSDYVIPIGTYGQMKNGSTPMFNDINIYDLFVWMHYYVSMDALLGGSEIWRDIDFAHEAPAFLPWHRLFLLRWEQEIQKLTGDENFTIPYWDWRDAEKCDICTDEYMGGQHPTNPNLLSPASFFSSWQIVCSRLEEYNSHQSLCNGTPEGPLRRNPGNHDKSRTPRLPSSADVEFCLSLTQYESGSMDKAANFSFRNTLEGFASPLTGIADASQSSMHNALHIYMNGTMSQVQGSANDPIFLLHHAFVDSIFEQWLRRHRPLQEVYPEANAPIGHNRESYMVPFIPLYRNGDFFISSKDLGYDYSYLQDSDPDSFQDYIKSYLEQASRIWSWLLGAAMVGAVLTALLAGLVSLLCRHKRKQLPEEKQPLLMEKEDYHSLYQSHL
Type: biochemical
Source text: The efficacy of the thiazoles has been verified using an enzyme test by measuring the conversion of L-DOPA to L-dopaquinone by a human tyrosinase. In this method that is known from the literature (Winder, A. J. and Harris H., New assays for the tyrosine hydroxylase and dopa oxidase activities of tyrosinase. Eur. J. Biochem. (1991), 198, 317-26), the reaction product L-dopaquinone is reacted with MBTH (3-methyl-2-benzothiazoline hydrazone) is converted to form a pink-colored substance, the increase of which over time is measured by absorption at 490 nm. In table one, efficacy data for some of the claimed substances are shown by way of example. It may be concluded therefrom that the substances according to the invention are extremely effective pigmentation-inhibiting substances.

SMILES | inhibition at 100 µg/mL [%]
Oc1ccc(-c2csc(Nc3ncccn3)n2)c(O)c1 [Compound 1] | 93.1
Oc1ccc(-c2csc(Nc3ccccc3)n2)c(O)c1 [Compound 2] | 100
Oc1ccc(-c2csc(Nc3ncccn3)n2)cc1 [Compound 20] | 61.3
Oc1ccc(-c2csc(Nc3ccccn3)n2)cc1 [Compound 21] | 87.6
CN(c1ccccc1)c1nc(-c2ccc(O)cc2)cs1 [Compound 22] | 87.9
Oc1ccc(-c2csc(NN3CCOCC3)n2)c(O)c1 [Compound 24] | 82.9
Oc1ccc(-c2csc(N3CCOCC3)n2)c(O)c1 [Compound 25] | 90.3
O=C(Nc1nc(-c2ccc(O)cc2O)cs1)c1ccccc1 [Compound 26] | 100
CCN(CC)CCNc1nc(-c2ccc(O)cc2O)cs1 [Compound 28] | 80.5
